Assay results as given in ChEMBL document CHEMBL6177973, “A Novel Compound 3a-M1, from Metabolites of Sinomenine Derivative 3a, Exerts Potent Anti-Aplastic Anemia Activity via IP3R/ORAI-Mediated CTL Ferroptosis” (J Med Chem, 2025).
Activity calls are given as the source filed them. The calls are words filed in the database; no cut-off is given here.

Columns and labels:
[1] = Drug metabolism in rat plasma assessed as hydrolyzation/hydroxylation-mediated metabolite formation at 50 mg/kg, po measured for 24 hrs by HRMS analysis; type: ADME, organism-based; details: in vivo
[2] = Drug metabolism in rat plasma assessed as double hydrolyzation/hydroxylation-mediated metabolite formation at 50 mg/kg, po measured for 24 hrs by HRMS analysis; type: ADME, organism-based; details: in vivo
[3] = Drug metabolism in rat plasma assessed as hydrolyzation/demethylation/hydroxylation-mediated metabolite formation at 50 mg/kg, po measured for 24 hrs by HRMS analysis; type: ADME, organism-based; details: in vivo
[4] = Drug metabolism in mouse spleen assessed as (4bR,9S)-1-(hydroxymethyl)-3,7-dimethoxy-11-methyl-6-oxo-6,8a,9,10-tetrahydro-5H-9,4b-(epiminoethano)phenanthren-4-yl cinnamate metabolite formation at 50 mg/kg, po measured for 0.083 to 8 hrs by HPLC analysis; type: ADME, organism-based; details: in vivo, time 0.083-8 hrs
[5] = Stability in mouse spleen assessed as compound remaining at 50 mg/kg, po measured for 0.083 to 8 hrs by HPLC analysis; type: ADME, organism-based; details: in vivo, time 0.083-8 hrs
[6] = Stability in mouse liver assessed as compound remaining at 50 mg/kg, po measured for 0.083 to 8 hrs by HPLC analysis; type: ADME, organism-based; details: in vivo, time 0.083-8 hrs
[7] = Drug metabolism in Sprague-Dawley rat plasma assessed as cinnamic acid metabolite formation at 5 mg/kg, iv measured for 24 hrs by HPLC analysis; type: ADME, organism-based; details: in vivo
[8] = Drug metabolism in mouse lymph node assessed as cinnamic acid metabolite formation at 50 mg/kg, po measured for 0.083 to 8 hrs by HPLC analysis; type: ADME, organism-based; details: in vivo, time 0.083-8 hrs
[9] = Drug metabolism in mouse spleen assessed as cinnamic acid metabolite formation at 50 mg/kg, po measured for 0.083 to 8 hrs by HPLC analysis; type: ADME, organism-based; details: in vivo, time 0.083-8 hrs
[10] = Drug metabolism in mouse kidney assessed as cinnamic acid metabolite formation at 50 mg/kg, po measured for 0.083 to 8 hrs by HPLC analysis; type: ADME, organism-based; details: in vivo, time 0.083-8 hrs
[11] = Acute toxicity in 12 hr-fasted KM mouse assessed as animal survival at 10 g/kg, po administered as single dose measured for 14 days; type: organism-based; details: in vivo, 10000 mg/kg, 336 h, time 14 day
[12] = test system: Mus musculus; assay: Anti-aplastic anemia activity in BALB/c mouse model of immune-mediated bone marrow failure assessed as increase in platelet cells at 10 mg/kg, po treated for 14 days; type: functional, organism-based; details: time 14.0 day
[13] = test system: Mus musculus; assay: Anti-aplastic anemia activity in BALB/c mouse model of immune-mediated bone marrow failure assessed as increase in nucleated cells in bone marrow at 10 mg/kg, po treated for 14 days by H and E staining based analysis; type: functional, organism-based; details: time 14.0 day
[14] = test system: Mus musculus; assay: Anti-aplastic anemia activity in BALB/c mouse model of immune-mediated bone marrow failure assessed as restoration of nucleated to red blood cell ratio in bone marrow at 10 mg/kg, po treated for 14 days by H and E staining based analysis; type: functional, organism-based; details: time 14.0 day
[15] = test system: Mus musculus; assay: Anti-aplastic anemia activity in C57BL/6J mouse model of immune-mediated bone marrow failure assessed as increase in body weight at 5 to 15 mg/kg, IG qd treated for 21 days; type: functional, organism-based; details: dose 5-15 mg/kg, time 21.0 day
[16] = test system: Mus musculus; assay: Anti-aplastic anemia activity in C57BL/6J mouse model of immune-mediated bone marrow failure assessed as increase in white blood cells treated intragastrically once daily for 21 days; type: functional, organism-based; details: dose 5-15 mg/kg, route ig, time 21.0 day
[17] = test system: Mus musculus; assay: Anti-aplastic anemia activity in C57BL/6J mouse model of immune-mediated bone marrow failure assessed as CD8+ T cells at 10 mg/kg, IG qd treated for 12 days by flow cytometry (reference value: 72.15 %); type: functional; details: time 12 day
[18] = test system: Mus musculus; assay: Anti-aplastic anemia activity in C57BL/6J mouse model of immune-mediated bone marrow failure assessed as CD4+ T cells at 5 mg/kg, IG qd treated for 12 days by flow cytometry (reference value: 12.93 %); type: functional; details: time 12 day
[19] = test system: Mus musculus; assay: Anti-aplastic anemia activity in C57BL/6J mouse model of immune-mediated bone marrow failure assessed as CD4+ T cells at 15 mg/kg, IG qd treated for 12 days by flow cytometry (reference value: 12.93 %); type: functional; details: time 12 day
[20] = test system: Mus musculus; assay: Anti-aplastic anemia activity in C57BL/6J mouse model of immune-mediated bone marrow failure assessed as reduction in proportion of effector CD8+ T cells at 5 to 15 mg/kg, IG qd treated for 12 days by flow cytometry; type: functional, organism-based; details: dose 5-15 mg/kg, time 12.0 day
[21] = test system: Mus musculus; assay: Anti-aplastic anemia activity in C57BL/6J mouse model of immune-mediated bone marrow failure assessed as increase in memory CD8+ T cells at 5 to 15 mg/kg, IG qd treated for 12 days by flow cytometry; type: functional, organism-based; details: dose 5-15 mg/kg, time 12.0 day
[22] = test system: Mus musculus; assay: Anti-aplastic anemia activity in C57BL/6J mouse model of immune-mediated bone marrow failure assessed as reduction in cytotoxic T lymphocytes accumulation at 5 to 15 mg/kg, IG qd treated for 12 days; type: functional, organism-based; details: dose 5-15 mg/kg, time 12.0 day
[23] = test system: CD8-positive T cell; assay: Inhibition of CD3/CD28-activated CD8-positive T cell activation in BALB/c mouse lymph nodes assessed as decrease in lactate production at 1 to 10 uM incubated for 72 hrs; type: functional, tissue-based; details: Lymph node, dose 1-10 µM
[24] = test system: CD8-positive T cell; assay: Inhibition of CD3/CD28-activated CD8-positive T cell activation in BALB/c mouse lymph nodes assessed as decrease in TNF-alpha level at 1 to 10 uM incubated for 72 hrs by ELISA; type: functional, tissue-based; details: Lymph node, dose 1-10 µM
[25] = test system: THP-1; assay: Cytotoxicity against human THP-1 cells assessed as inhibition of cell viability incubated for 72 hrs by CCK8 assay; type: functional, cell-based; details: THP-1, 72 h
[26] = test system: IEC-6; assay: Cytotoxicity against rat IEC-6 cells assessed as inhibition of cell viability incubated for 72 hrs by CCK8 assay; type: functional, cell-based; details: IEC-6, 72 h
[27] = test system: CTLL-2; assay: Induction of ferroptosis in mouse CTLL-2 cells assessed as increase in mitochondrial superoxide level incubated for 16 hrs by MitoSOX Red staining based fluorescent microscopy; type: functional, cell-based; details: dose 7.5-30 µM
[28] = test system: CTLL-2; assay: Induction of ferroptosis in IL-2-stimulated mouse CTLL-2 cells assessed as increase in pERK level at 30 uM incubated for 6 hrs followed by Fer-1 addition measured after 10 hrs by Western blot analysis; type: functional, cell-based; details: time 16.0 hrs
[29] = test system: CTLL-2; assay: Induction of ferroptosis in IL-2-stimulated mouse CTLL-2 cells assessed as increase in p-p38 level at 30 uM incubated for 6 hrs followed by Fer-1 addition measured after 10 hrs by Western blot analysis; type: functional, cell-based; details: time 16.0 hrs
[30] = test system: CTLL-2; assay: Induction of ferroptosis in mouse CTLL-2 cells assessed as increase in intracellular Ca2+ concentration at 10 uM incubated for 45 mins in presence of 2-APB by Fluo-4 AM dye based analysis; type: functional, cell-based
[31] = test system: CTLL-2; assay: Induction of ferroptosis in mouse CTLL-2 cells assessed as increase in intracellular Ca2+ concentration in presence of 2-APB/CM4620 by Fluo-4 AM dye based analysis; type: functional, cell-based
[32] = test system: CTLL-2; assay: Induction of ferroptosis in mouse CTLL-2 cells assessed as increase in ROS level at 10 uM incubated for 45 mins in presence of 2-APB; type: functional, cell-based
[33] = test system: HepG2; assay: Induction of ferroptosis in human HepG2 cells assessed as increase in intracellular Ca2+ concentration at 10 uM by Fluo-4 AM dye based analysis; type: functional, cell-based

COC1=C[C@@H]2[C@@H]3Cc4c(COC(=O)/C=C/c5ccccc5)cc(OC)c(OC(=O)/C=C/c5ccccc5)c4[C@]2(CCN3C)CC1=O
Drug metabolism [1]: metabolite_detected | Drug metabolism [2]: metabolite_detected | Drug metabolism [3]: metabolite_detected | Drug metabolism [4]: metabolite_detected | Stability [5]: Unstable | Stability [6]: Unstable | Drug metabolism [7]: metabolite_detected | Drug metabolism [8]: metabolite_detected | Drug metabolism [9]: metabolite_detected | Drug metabolism [10]: metabolite_detected

COC1=C[C@@H]2[C@@H]3Cc4c(CO)cc(OC)c(OC(=O)/C=C/c5ccccc5)c4[C@]2(CCN3C)CC1=O
Activity [11]: Non-toxic | Activity [12]: Active | Activity [13]: Active | Activity [14]: Active | Activity [15]: Active | Activity [16]: Dose-dependent-effect | Activity [17]: 38.55% | Activity [18]: 11.38% | Activity [19]: 37.87% | Activity [20]: Active | Activity [21]: Active | Activity [22]: Active | inhibition [23]: Active | inhibition [24]: Active | IC50 [25]: 125 µM | IC50 [26]: 84.3 µM | Activity [27]: Dose-dependent-effect | Activity [28]: inactive | Activity [29]: inactive | Activity [30]: inactive | Activity [31]: inactive | Activity [32]: inactive | Activity [33]: Not active; Elevation Was Smaller Than In Mouse Ctll-2 Cells
